We go through 17 compounds from PubChem BioAssay AID624167 (Sanford-Burnham Center for Chemical Genomics, 2012).

One may read the IC50 as the concentration that gives 50% inhibition.

Calls of active or inactive are those of the source.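 The calls were made as follows: active = mean IC50 for reducing PEG3 promoter reporter signal at or below a set limit, with IC50 above the limit in both counter screens; inactive = the rest, including counter screen hits.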 Some results are limits rather than exact numbers.

What all share (assay): inhibition of PEG-3 promoter-driven reporter – cell-based, HeLa, luciferase, CREF/GAPDH counter-screen panel, dose response (AID 624167)
The target in assay [1] is PEG-3 (UniProt Q6IN02). To be noted: HeLa PEG-Prom luciferase reporter, overnight, CREF/GAPDH counter-screens, mean of runs. (A reporter such as luciferase makes a cellular process visible.)
Sequence of PEG-3 (UniProt Q6IN02) (Q6IN02 whole entry, looked up): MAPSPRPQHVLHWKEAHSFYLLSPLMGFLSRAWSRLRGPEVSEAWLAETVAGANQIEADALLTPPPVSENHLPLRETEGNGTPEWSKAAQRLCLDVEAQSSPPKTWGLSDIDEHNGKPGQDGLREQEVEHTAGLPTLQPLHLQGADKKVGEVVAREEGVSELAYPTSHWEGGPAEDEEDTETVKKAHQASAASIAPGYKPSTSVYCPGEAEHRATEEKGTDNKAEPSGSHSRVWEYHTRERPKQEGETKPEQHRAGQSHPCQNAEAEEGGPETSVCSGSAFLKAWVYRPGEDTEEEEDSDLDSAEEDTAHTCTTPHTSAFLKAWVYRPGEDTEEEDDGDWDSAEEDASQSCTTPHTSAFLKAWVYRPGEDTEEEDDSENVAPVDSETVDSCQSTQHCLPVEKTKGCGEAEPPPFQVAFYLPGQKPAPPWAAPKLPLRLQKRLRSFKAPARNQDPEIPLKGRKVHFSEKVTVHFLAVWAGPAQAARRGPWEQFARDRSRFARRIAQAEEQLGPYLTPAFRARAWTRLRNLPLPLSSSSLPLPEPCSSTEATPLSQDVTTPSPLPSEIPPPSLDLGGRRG
Assay [2] relates to PEG-3. To be noted: HeLa PEG-Prom luciferase reporter, overnight, CREF/GAPDH counter-screens.
Assay [3] has as its system Rat fibroblasts (CREF). To be noted: CREF/GAPDH counter-screens.
The mark [4] stands for this setting: run 1, dose range 1, individual replicate IC50 per panel.
The mark [5] stands for this setting: run 2, dose range 1, individual replicate IC50 per panel.

Take `CC(=O)NC(c1ccc(N(C)C)cc1)c1cc(Cl)c2cccnc2c1O` (configuration not stated): the IC50 in assay [1] is 3.76 µM; in assay [2] (setting [4]) it was 3.14 µM; in assay [2] (setting [5]), 4.37 µM; in assay [3] (mean of runs) it was 53.7 µM (inactive); in assay [3] (setting [4]), > 100 µM; in assay [3] (setting [5]) it was 7.34 µM.
Consider `O=c1oc2ccccc2cc1-c1cn2ccccc2n1`, for which the IC50 in assay [1] is 2.74 µM; in assay [2] (setting [4]), 2.31 µM; in assay [2] (setting [5]), 3.17 µM; in assay [3] (mean of runs), 4.47 µM; in assay [3] (setting [4]), 2.84 µM; in assay [3] (setting [5]), 6.1 µM.
For the compound `COC(=O)Cc1[nH]n(-c2nc3ccccc3s2)c(=O)c1C(C)=Nc1ccc(C)cc1`, the IC50 in assay [1] is 0.865 µM; in assay [2] (setting [4]) it was 0.98 µM; in assay [2] (setting [5]), 0.751 µM; in assay [3] (mean of runs), 14.8 µM; in assay [3] (setting [4]) it was 25.2 µM; in assay [3] (setting [5]), 4.52 µM.
Consider `Cc1ccc(C(=O)Nc2nc3ccccc3[nH]2)cc1`, for which the IC50 was 3.37 µM in assay [1]; 2.02 µM in assay [2] (setting [4]); 4.71 µM in assay [2] (setting [5]); 0.521 µM in assay [3] (mean of runs); 0.523 µM in assay [3] (setting [4]); 0.519 µM in assay [3] (setting [5]).
As to `Cc1cccc(C)c1NC(=O)c1nc(S(=O)(=O)Cc2ccccc2)ncc1Cl`, the IC50 in assay [1] is 8.69 µM; in assay [2] (setting [4]), 10.1 µM; in assay [2] (setting [5]) it was 7.29 µM; in assay [3] (mean of runs), 14.6 µM; in assay [3] (setting [4]) it was 13 µM; in assay [3] (setting [5]), 16.1 µM.
In the case of `Cc1ccccc1OCC(O)CNC1CCC(NCC(O)COc2ccccc2C)CC1` (configuration not stated), the IC50 in assay [1] was 7.15 µM; in assay [2] (setting [4]) it was 9.8 µM; in assay [2] (setting [5]) it was 4.49 µM; in assay [3] (mean of runs), 10.8 µM; in assay [3] (setting [4]), 8.94 µM; in assay [3] (setting [5]) it was 12.6 µM.
Take `CCCSc1ccc2nc(-c3ccccc3)cn2c1`: the IC50 in assay [1] is 8.11 µM; in assay [2] (setting [4]), 7.01 µM; in assay [2] (setting [5]), 9.2 µM; in assay [3] (mean of runs), 1.53 µM; in assay [3] (setting [4]), 1.03 µM; in assay [3] (setting [5]), 2.03 µM.
Turning to `NC(Cc1ccc(F)cc1)c1csc(Nc2cc(Oc3ccccc3)ncn2)n1` (configuration not stated), the half-inhibitory concentration (IC50) in assay [1] was 10.2 µM; in assay [2] (setting [4]), 13.2 µM; in assay [2] (setting [5]), 7.16 µM; in assay [3] (mean of runs), 17.2 µM; in assay [3] (setting [4]), 21.3 µM; in assay [3] (setting [5]) it was 13.1 µM.
On to `O=C(Nc1ccccn1)c1cc2ccccc2o1`, for which the half-inhibitory concentration (IC50) is 4.54 µM in assay [1]; 5.06 µM in assay [2] (setting [4]); 4.01 µM in assay [2] (setting [5]); 1.82 µM in assay [3] (mean of runs); 1.35 µM in assay [3] (setting [4]); 2.29 µM in assay [3] (setting [5]).
In the case of `COc1ccccc1C(=O)Nc1nc2ccccc2s1`, the half-maximal inhibitory concentration (IC50) in assay [1] is 0.574 µM; in assay [2] (setting [4]), 0.515 µM; in assay [2] (setting [5]), 0.633 µM; in assay [3] (mean of runs) it was 0.489 µM; in assay [3] (setting [4]) it was 0.348 µM; in assay [3] (setting [5]), 0.631 µM.
For `O=[N+]([O-])c1ccc(-c2ccc(/C=N/Nc3nc(NCc4ccccc4)nc(N4CCOCC4)n3)o2)cc1`, the IC50 is 5.66 µM in assay [1]; 6.13 µM in assay [2] (setting [4]); 5.18 µM in assay [2] (setting [5]); 8.54 µM in assay [3] (mean of runs); 9.4 µM in assay [3] (setting [4]); 7.68 µM in assay [3] (setting [5]).
`CCN1C=CC(=C2C(=O)c3ccccc3C2=O)C=C1`: the half-inhibitory concentration (IC50) was 0.957 µM in assay [1]; 0.834 µM in assay [2] (setting [4]); 1.08 µM in assay [2] (setting [5]); 0.85 µM in assay [3] (mean of runs); 0.947 µM in assay [3] (setting [4]); 0.753 µM in assay [3] (setting [5]).
For `C/C(=N\NC(=O)c1n[nH]c2c1CCC2)c1cccs1`, the concentration for half-maximal inhibition (IC50) is 1.75 µM in assay [1]; 1.17 µM in assay [2] (setting [4]); 2.33 µM in assay [2] (setting [5]); 2.49 µM in assay [3] (mean of runs); 2.49 µM in assay [3] (setting [4]); 2.49 µM in assay [3] (setting [5]).
For the compound `COc1ccc(C(=O)NNC(=O)c2ccccn2)cc1`, the half-inhibitory concentration (IC50) is 1.76 µM in assay [1]; 2.68 µM in assay [2] (setting [4]); 0.849 µM in assay [2] (setting [5]); 1.65 µM in assay [3] (mean of runs); 1.21 µM in assay [3] (setting [4]); 2.09 µM in assay [3] (setting [5]).
For the compound `CN=c1scc(-c2cccs2)n1/N=C/c1ccccc1O`, the IC50 entry in assay [1] is “inactive”. For the same compound, the IC50 in assay [2] (setting [4]) is 0.26 µM; in assay [2] (setting [5]) it was > 100 µM; in assay [3] (mean of runs), 5.44 µM; in assay [3] (setting [4]), 5.28 µM; in assay [3] (setting [5]), 5.6 µM.
Consider `OCC1OC(n2ccc3c(NO)ncnc32)C(O)C1O` (configuration not stated), for which the 50% inhibitory concentration (IC50) in assay [1] was 0.378 µM; in assay [2] (setting [4]), 0.433 µM; in assay [2] (setting [5]), 0.323 µM; in assay [3] (mean of runs), 3.21 µM; in assay [3] (setting [4]) it was 2.77 µM; in assay [3] (setting [5]), 3.64 µM.
For the compound `O=C(Nc1nc2cc3c(cc2s1)OCCO3)c1ccco1`, the IC50 was 1.98 µM in assay [1]; 1.75 µM in assay [2] (setting [4]); 2.22 µM in assay [2] (setting [5]); 1.48 µM in assay [3] (mean of runs); 0.766 µM in assay [3] (setting [4]); 2.2 µM in assay [3] (setting [5]).
